Laboratory results: US11339130B1 (Blade Therapeutics, Inc., priority 2016, dated 2022)
Structures can show the parent of a compound that is named as a salt. Where two headings read alike, the source gives them in different places.

Key:
[1] = biological target: T1, Human Calpain 1/NS1 (Homo sapiens, UniProt P07384); test: Calpain inhibition continuous fluorescence (FRET) assay, Human Calpain 1/NS1; type: biochemical
T1 sequence (P07384 1-714): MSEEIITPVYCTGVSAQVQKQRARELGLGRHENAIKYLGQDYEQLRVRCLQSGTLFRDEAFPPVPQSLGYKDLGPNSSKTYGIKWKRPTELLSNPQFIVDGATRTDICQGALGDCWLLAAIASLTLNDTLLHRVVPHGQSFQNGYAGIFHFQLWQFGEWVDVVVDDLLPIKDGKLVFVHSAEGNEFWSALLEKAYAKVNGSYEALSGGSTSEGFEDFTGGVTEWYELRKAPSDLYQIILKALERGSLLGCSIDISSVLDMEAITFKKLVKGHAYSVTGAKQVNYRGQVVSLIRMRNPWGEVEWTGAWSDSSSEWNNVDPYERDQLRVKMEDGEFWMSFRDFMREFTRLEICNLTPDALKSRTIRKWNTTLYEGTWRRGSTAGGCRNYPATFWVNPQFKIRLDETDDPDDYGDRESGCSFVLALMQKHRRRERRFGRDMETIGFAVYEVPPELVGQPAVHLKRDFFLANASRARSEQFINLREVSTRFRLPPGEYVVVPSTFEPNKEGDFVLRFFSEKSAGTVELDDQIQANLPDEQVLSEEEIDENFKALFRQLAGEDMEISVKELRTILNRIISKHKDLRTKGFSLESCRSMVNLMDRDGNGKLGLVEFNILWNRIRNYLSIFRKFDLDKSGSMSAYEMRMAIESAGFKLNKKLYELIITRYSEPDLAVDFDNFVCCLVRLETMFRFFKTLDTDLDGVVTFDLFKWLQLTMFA
T1 sequence (P04632 1-268 partner): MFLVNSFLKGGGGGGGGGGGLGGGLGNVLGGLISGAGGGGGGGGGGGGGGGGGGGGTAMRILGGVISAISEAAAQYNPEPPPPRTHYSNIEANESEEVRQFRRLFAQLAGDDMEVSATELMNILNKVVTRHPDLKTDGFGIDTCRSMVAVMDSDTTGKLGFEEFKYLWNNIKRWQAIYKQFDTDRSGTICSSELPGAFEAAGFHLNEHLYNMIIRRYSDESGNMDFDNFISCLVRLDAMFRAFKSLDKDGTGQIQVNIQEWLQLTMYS
Summary of the method: (§1)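 Calpain activity is measured kinetically with a quenched FRET peptide in 50 mM Tris pH 7.5, 100 mM NaCl, 1 mM DTT, with CaCl2 triggering activation. Rates over 1-5 min are plotted against log inhibitor to obtain IC50 by 4-parameter logistic fitting.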

[2] = biological target: T2, Human Calpain 2/NS1 (Homo sapiens, UniProt P17655); test: Calpain inhibition continuous fluorescence (FRET) assay, Human Calpain 2/NS1; type: biochemical
T2 sequence (P17655 1-700): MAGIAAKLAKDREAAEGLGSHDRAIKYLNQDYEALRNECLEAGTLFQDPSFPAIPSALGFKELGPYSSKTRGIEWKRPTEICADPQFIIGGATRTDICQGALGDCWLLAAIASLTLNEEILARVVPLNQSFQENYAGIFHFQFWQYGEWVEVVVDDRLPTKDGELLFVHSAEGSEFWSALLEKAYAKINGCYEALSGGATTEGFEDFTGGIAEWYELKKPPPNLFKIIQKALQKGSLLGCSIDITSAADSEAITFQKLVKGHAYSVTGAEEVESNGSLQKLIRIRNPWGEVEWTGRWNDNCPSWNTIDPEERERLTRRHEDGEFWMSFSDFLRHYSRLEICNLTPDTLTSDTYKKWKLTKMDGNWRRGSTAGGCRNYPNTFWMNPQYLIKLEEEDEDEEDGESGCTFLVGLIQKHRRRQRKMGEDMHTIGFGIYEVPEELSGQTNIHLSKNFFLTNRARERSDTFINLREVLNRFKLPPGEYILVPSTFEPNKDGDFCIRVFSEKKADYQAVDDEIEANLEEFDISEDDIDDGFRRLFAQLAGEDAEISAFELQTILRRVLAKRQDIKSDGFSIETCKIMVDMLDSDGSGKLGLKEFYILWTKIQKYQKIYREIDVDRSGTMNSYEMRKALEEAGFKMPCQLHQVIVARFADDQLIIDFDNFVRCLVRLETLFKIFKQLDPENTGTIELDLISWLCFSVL
T2 sequence (P04632 1-268 partner): T1 sequence (P04632 1-268 partner)
Summary of the method: as §1

[3] = biological target: T3, Human Calpain 9/NS1 (Homo sapiens, UniProt O14815); test: Calpain inhibition continuous fluorescence (FRET) assay, Human Calpain 9/NS1; type: biochemical
T3 sequence (O14815 1-690): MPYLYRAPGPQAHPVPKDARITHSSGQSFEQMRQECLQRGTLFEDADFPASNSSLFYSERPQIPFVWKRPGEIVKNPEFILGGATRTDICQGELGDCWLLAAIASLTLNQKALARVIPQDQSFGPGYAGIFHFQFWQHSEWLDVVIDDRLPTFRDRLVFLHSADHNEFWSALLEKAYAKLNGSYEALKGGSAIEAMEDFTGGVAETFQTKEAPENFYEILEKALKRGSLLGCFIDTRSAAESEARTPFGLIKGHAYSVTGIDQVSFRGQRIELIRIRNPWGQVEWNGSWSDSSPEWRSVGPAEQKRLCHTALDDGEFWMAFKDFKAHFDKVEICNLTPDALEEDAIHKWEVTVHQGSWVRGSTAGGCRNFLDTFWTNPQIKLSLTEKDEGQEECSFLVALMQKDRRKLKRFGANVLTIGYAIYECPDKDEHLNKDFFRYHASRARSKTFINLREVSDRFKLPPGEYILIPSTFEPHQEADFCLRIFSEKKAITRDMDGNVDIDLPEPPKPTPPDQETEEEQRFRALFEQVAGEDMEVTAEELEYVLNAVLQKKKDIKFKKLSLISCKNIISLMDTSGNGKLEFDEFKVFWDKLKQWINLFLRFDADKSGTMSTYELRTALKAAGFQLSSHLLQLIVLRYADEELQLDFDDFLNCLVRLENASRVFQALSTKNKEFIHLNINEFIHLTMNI
T3 sequence (P04632 1-268 partner): T1 sequence (P04632 1-268 partner)
Summary of the method: as §1

[4] = test system: Calpain activity in SH-SY5Y cells (SBDP-150); test: SH-SY5Y Spectrin western blot assay (SBDP-150 breakdown product, A23187-induced); type: cell-based; settings: Homo sapiens, read-out: SH-SY5Y Spectrin IC50
[5] = test system: Calpain activity in SH-SY5Y cells; test: SH-SY5Y + AMC fluorescence assay (Suc-LLVY-AMC substrate); type: cell-based
[6] = Column A, read-out: Human Calpain 1/NS1 IC50
[7] = Column B, read-out: Human Calpain 2/NS1 IC50
[8] = Column C, read-out: Human Calpain 9/NS1 IC50
[9] = Column D, SH-SY5Y cells, A23187-induced SBDP-150
[10] = Column E, read-out: SH-SY5Y + AMC IC50
[11] = read-out: SH-SY5Y + AMC IC50, Column E

SMILES	IC50 [1, 6]	IC50 [2, 7]	IC50 [3, 8]	IC50 [4, 9]	IC50 [5, 10]	IC50 ([4]; SH-SY5Y)	IC50 [5, 11]	IC50 [1]	IC50 [2]	IC50 [3]
CCOC(=O)NCc1cccc(-n2nc(C)cc2C(=O)N[C@@H](Cc2ccccc2)C(=O)C(N)=O)c1 [Compound 147, Ethyl (S)-(3-(5-((4-amino-3,4-dioxo-1-phenylbutan-2-yl)carbamoyl)-3-methyl-1H-pyrazol-1-yl)benzyl)carbamate]	< 3 µM	< 3 µM	< 3 µM			10 to 25 µM	10 to 25 µM			
Cc1cc(C(=O)N[C@@H](Cc2ccccc2)C(=O)C(N)=O)n(-c2ccc(CNC(=O)OCc3ccccc3)cc2)n1 [Compound 153, Benzyl (S)-(4-(5-((4-amino-3,4-dioxo-1-phenylbutan-2-yl)carbamoyl)-3-methyl-1H-pyrazol-1-yl)benzyl)carbamate]	< 3 µM	< 3 µM	< 3 µM			< 10 µM	> 25 µM			
CC(=O)NCc1ccc(-n2nc(C)cc2C(=O)N[C@@H](Cc2ccccc2)C(=O)C(N)=O)cc1 [Compound 157, (S)-1-(4-(acetamidomethyl)phenyl)-N-(4-amino-3,4-dioxo-1-phenylbutan-2-yl)-3-methyl-1H-pyrazole-5-carboxamide]	< 3 µM	< 3 µM	< 3 µM			> 25 µM	> 25 µM			
Cc1cc(C(=O)N[C@@H](Cc2ccccc2)C(=O)C(N)=O)n(-c2ccc(CNC(=O)Cc3ccccc3)cc2)n1 [Compound 159, (S)—N-(4-amino-3,4-dioxo-1-phenylbutan-2-yl)-3-methyl-1-(4-((2-phenylacetamido)methyl)phenyl)-1H-pyrazole-5-carboxamide]	< 3 µM	< 3 µM	< 3 µM	10 to 25 µM	> 25 µM					
Cc1cc(C(=O)N[C@@H](Cc2ccccc2)C(=O)C(N)=O)n(-c2ccc(CNC(=O)Oc3ccccc3)cc2)n1 [Compound 162, Phenyl (S)-(4-(5-((4-amino-3,4-dioxo-1-phenylbutan-2-yl)carbamoyl)-3-methyl-1H-pyrazol-1-yl)benzyl)carbamate]						> 25 µM	> 25 µM	< 3 µM	< 3 µM	< 3 µM
Cc1cccc(-c2nn(C)cc2C(=O)N[C@@H](Cc2ccccc2)C(=O)C(N)=O)c1 [Compound 163, (S)—N-(4-amino-3,4-dioxo-1-phenylbutan-2-yl)-1-methyl-3-(M-tolyl)-1H-pyrazole-4-carboxamide]	< 3 µM	< 3 µM	< 3 µM	10 to 25 µM	10 to 25 µM					
Cc1ccc(-c2nn(C)cc2C(=O)N[C@@H](Cc2ccccc2)C(=O)C(N)=O)cc1 [Compound 166, (S)—N-(4-amino-3,4-dioxo-1-phenylbutan-2-yl)-1-methyl-3-(p-tolyl)-1H-pyrazole-4-carboxamide]	< 3 µM	< 3 µM	< 3 µM	10 to 25 µM	> 25 µM					
Cn1cc(C(=O)N[C@@H](Cc2ccc(F)cc2)C(=O)C(N)=O)c(-c2ccccc2)n1 [Compound 168, (S)—N-(4-amino-1-(4-fluorophenyl)-3,4-dioxobutan-2-yl)-1-methyl-3-phenyl-1H-pyrazole-4-carboxamide]	< 3 µM	< 3 µM	< 3 µM	10 to 25 µM	< 10 µM					

The next lines start with results.

IC50 [1, 6]	IC50 [2, 7]	IC50 [3, 8]	IC50 [4, 9]	IC50 [5, 10]	SMILES	IC50 ([4]; SH-SY5Y)	IC50 [5, 11]	IC50 [1]	IC50 [2]	IC50 [3]
< 3 µM	< 3 µM	< 3 µM	10 to 25 µM	< 10 µM	Cc1cc(C(=O)N[C@@H](Cc2ccccc2)C(=O)C(N)=O)n(-c2cccc(CNCc3ccccc3)c2)n1 [Compound 146, (S)—N-(4-amino-3,4-dioxo-1-phenylbutan-2-yl)-1-(3-((benzylamino)methyl)phenyl)-3-methyl-1H-pyrazole-5-carboxamide]					
< 3 µM	< 3 µM	< 3 µM	10 to 25 µM	> 25 µM	Cc1cc(C(=O)N[C@@H](Cc2ccccc2)C(=O)C(N)=O)n(-c2ccc(CNC(=O)c3ccccc3)cc2)n1 [Compound 154, (S)—N-(4-amino-3,4-dioxo-1-phenylbutan-2-yl)-1-(4-(benzamidomethyl)phenyl)-3-methyl-1H-pyrazole-5-carboxamide]					
< 3 µM	< 3 µM	< 3 µM	< 10 µM	> 25 µM	Cc1cc(C(=O)N[C@@H](Cc2ccccc2)C(=O)C(N)=O)n(-c2ccc(CNS(=O)(=O)c3ccccc3)cc2)n1 [Compound 156, (S)—N-(4-amino-3,4-dioxo-1-phenylbutan-2-yl)-3-methyl-1-(4-(phenylsulfonamidomethyl)phenyl)-1H-pyrazole-5-carboxamide]					
< 3 µM	< 3 µM	< 3 µM	10 to 25 µM	> 25 µM	COC(=O)NCc1ccc(-n2nc(C)cc2C(=O)N[C@@H](Cc2ccccc2)C(=O)C(N)=O)cc1 [Compound 158, Methyl (S)-(4-(5-((4-amino-3,4-dioxo-1-phenylbutan-2-yl)carbamoyl)-3-methyl-1H-pyrazol-1-yl)benzyl)carbamate]					
< 3 µM	< 3 µM	< 3 µM	10 to 25 µM	> 25 µM	Cc1cc(C(=O)N[C@@H](Cc2ccccc2)C(=O)C(N)=O)n(-c2ccc(CNCc3ccccc3)cc2)n1 [Compound 160, (S)—N-(4-amino-3,4-dioxo-1-phenylbutan-2-yl)-1-(4-((benzylamino)methyl)phenyl)-3-methyl-1H-pyrazole-5-carboxamide hydrochloride]					
< 3 µM	< 3 µM	< 3 µM	> 25 µM	> 25 µM	Cn1ncc(C(=O)N[C@@H](Cc2ccccc2)C(=O)C(N)=O)c1-c1ccccn1 [Compound 164, (S)—N-(4-amino-3,4-dioxo-1-phenylbutan-2-yl)-1-methyl-5-(pyridin-2-yl)-1H-pyrazole-4-carboxamide]					
